The source of these data is article PMC4844176 (Xenobiotica; the fate of foreign compounds in biological …, 2015).

≈ marks a conversion by molar mass, not a printed value.

The subject of series [1] is human intestinal microsomes (HIM).
Another series has as its target T1, UGT1A8 (Homo sapiens, UniProt Q9HAW9).
T1 sequence (Q9HAW9 26-530): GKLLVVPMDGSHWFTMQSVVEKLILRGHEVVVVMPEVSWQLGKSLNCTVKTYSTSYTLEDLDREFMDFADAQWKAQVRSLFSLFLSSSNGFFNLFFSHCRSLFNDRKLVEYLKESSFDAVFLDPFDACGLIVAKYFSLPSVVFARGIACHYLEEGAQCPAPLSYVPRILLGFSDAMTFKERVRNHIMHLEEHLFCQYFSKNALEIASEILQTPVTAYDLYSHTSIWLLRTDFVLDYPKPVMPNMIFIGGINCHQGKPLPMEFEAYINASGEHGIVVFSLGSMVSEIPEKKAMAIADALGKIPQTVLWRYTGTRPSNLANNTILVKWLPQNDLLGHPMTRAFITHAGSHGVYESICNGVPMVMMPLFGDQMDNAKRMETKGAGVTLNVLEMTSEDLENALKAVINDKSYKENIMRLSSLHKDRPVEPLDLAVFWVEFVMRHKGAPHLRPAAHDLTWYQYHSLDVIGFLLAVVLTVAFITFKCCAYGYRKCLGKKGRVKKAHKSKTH

The target in a further series is T2, UGT1A6 (Homo sapiens, UniProt P19224).
T2 sequence (P19224 27-532): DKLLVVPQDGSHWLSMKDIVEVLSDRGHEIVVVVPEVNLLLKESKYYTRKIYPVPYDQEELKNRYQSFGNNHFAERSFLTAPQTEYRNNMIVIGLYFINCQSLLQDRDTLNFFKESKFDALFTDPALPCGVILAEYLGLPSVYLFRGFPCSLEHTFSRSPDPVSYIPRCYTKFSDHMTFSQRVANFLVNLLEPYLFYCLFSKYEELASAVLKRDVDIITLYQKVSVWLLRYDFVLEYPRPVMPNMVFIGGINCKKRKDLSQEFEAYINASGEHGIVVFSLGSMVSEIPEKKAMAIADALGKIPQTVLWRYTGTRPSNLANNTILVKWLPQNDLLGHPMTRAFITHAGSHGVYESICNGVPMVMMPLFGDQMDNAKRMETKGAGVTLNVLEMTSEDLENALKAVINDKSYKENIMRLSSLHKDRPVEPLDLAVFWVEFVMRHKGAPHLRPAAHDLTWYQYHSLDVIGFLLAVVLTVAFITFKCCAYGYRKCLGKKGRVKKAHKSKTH
The series can be described thus: Screening for aprepitant glucuronidation, UGT1A6 Supersomes. Type of series: in vitro ADME. Particulars: UGT1A6, 5 and 250 µM aprepitant.

The subject of series [2] is UGTs in human intestinal microsomes (HIM). The series can be described thus: in vitro. To be noted: pH 7.5.
The nature of another series: in vitro. Particulars: human, microsomes, pH 7.5.
The conditions of series [3]: ref Lasseter et al., 2007, Takahashi et al., 2011; cited from earlier work.
Series [4] deals with human liver microsomes (HLM). The class given is in vitro ADME. Particulars: pooled HLM; Km not shown.
Series [5] is described as follows: Calculated concentration of drug in the lumen of the gut. Further details: species or system human. To be noted: molar dose/250 mL.
Series [6] concerns human liver microsomes (HLM). The class given is in vitro ADME. To be noted: microsomes from 44 livers, 30 µM aprepitant.
In another series the target is T3, UGT1A7 (Homo sapiens, UniProt Q9HAW7).
T3 sequence (Q9HAW7 26-530): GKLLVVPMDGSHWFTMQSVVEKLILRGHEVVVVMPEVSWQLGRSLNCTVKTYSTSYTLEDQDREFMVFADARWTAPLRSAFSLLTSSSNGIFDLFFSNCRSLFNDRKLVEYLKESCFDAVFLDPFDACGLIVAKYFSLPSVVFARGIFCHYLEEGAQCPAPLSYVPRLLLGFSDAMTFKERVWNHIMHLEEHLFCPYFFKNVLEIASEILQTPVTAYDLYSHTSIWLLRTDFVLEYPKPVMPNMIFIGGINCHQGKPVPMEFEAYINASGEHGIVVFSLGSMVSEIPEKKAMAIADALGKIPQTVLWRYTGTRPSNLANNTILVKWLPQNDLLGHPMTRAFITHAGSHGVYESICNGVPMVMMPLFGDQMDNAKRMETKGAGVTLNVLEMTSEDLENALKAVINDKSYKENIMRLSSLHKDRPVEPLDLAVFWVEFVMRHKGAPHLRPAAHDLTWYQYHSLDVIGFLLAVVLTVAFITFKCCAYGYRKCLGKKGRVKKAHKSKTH
The series can be described thus: Screening for aprepitant glucuronidation, UGT1A7 Supersomes. The class given is in vitro ADME. Particulars: UGT1A7, 5 and 250 µM aprepitant.

A short description of series [7]: Aqueous solubility of aprepitant. To be noted: aqueous medium. The class given is physicochemical.
Another series deals with T4, UGT2B17 (Homo sapiens, UniProt O75795).
T4 sequence (O75795 24-530): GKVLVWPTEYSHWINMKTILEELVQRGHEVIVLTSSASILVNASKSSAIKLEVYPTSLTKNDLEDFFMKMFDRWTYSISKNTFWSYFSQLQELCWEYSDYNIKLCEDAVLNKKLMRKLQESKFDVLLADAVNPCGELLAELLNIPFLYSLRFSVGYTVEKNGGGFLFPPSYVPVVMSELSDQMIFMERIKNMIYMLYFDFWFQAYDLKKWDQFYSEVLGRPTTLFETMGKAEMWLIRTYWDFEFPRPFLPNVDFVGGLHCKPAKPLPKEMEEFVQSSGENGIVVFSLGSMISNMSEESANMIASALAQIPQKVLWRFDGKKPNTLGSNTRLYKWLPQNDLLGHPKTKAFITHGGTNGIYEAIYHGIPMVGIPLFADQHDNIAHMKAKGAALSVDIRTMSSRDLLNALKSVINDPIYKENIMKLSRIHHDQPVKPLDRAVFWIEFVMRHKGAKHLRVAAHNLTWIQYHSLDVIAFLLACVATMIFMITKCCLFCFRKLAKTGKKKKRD
The series can be described thus: Inhibition by aprepitant of UGT2B17. The class given is in vitro ADME. To be noted: UGT2B17 enzyme, pH 7.5, probe 4-MU.

Consider `C[C@@H](O[C@H]1OCCN(Cc2n[nH]c(=O)[nH]2)[C@H]1c1ccc(F)cc1)c1cc(C(F)(F)F)cc(C(F)(F)F)c1` [aprepitant, Aprepitant], for which the Vmax is on record as 352 ± 8 fmol/min/mg protein in [1] (HIM, mean ± SE) and 683 ± 69 fmol/min/mg protein at UGT1A8 (UGT1A8, mean ± SE). For the same molecule, the “velocity of AP-G formation” value was 278.3 ± 1.9 fmol/min/mg protein in series [1] (human, 60 min, 250 µM, pH 7.5) and 391 ± 10.6 fmol/min/mg protein at UGT1A8 (human, 60 min, 250 µM, pH 7.5). In addition, the “n (Hill coefficient)” value on UGT1A8 (UGT1A8, mean ± SE) was 1.2 ± 0.1. Moreover, the CLint at UGT1A8 (human, recombinant enzyme, pH 7.5) is reported as 3.5 µl/min/µg protein. The AP-G formation entry on UGT1A6 and on UGT1A7 was “not detected” throughout. Moreover, in series [2], the Michaelis-Menten constant (Km) at 60 min turned out to be 63 ± 5 µM. In the series “in vitro”, the microsomal CLint is 5600 µL/min/mg. Further, in series [3], the “systemic circulation concentration in patients” value is “approximately 5 µM”. For the same molecule, the “shape of velocity curve (kinetics)” value in [4] is on record as “biphasic shape”. The figures for the “luminal concentration (Igut)” value in [5] (40 mg oral capsule) and in series [5] (125 mg oral capsule) were 300 µM and 936 µM, respectively. Besides, the “variation of glucuronidation activity between livers” value in [6] is listed as “approximately 2 fold”. Further, the solubility in series [7] was roughly 250 µM (≈ 134 µg/mL). The same molecule came in with an inhibition at 10 µM against UGT2B17 of 10%.

What is called Km is the concentration of substrate that gives half-maximal velocity. What is called microsomal CLint is a measure of how fast metabolising enzymes remove a compound, apart from limits set by blood flow. Higher therefore signals rapid turnover. For orientation: solubility means the dissolved amount per volume that the medium holds. Low values mean little dissolved substance, high ones much dissolved substance. One may read the inhibition as the percentage by which the read-out fell short of the control.
